These results are taken from US6949522B2, “β-2′- or 3′-halonucleosides” (Pharmasset, Inc., priority 2001, dated 2005).

Like-named read-outs stand apart in the source and are kept apart here. Marks after values point to notes of the source that are not given here. Some results are limits rather than exact numbers.

Series [1] has as its system mitochondrial cytochrome C oxidase subunit II (COXII) gene. In kind it is cell-based, human. The following applies: HepG2, 10 μM, 7 days; for COXIINβ-actin DNA (range) relative to control: COXII DNA normalized to β-actin DNA. The source says:
The Q-RT-PCR technology was also used to evaluate potential mitochondrial γ-DNA polymerase inhibition by the compounds of the present invention in relevant human cells. […] Since active nucleoside compounds in the triphosphate form lack a 3′-OH, thereby stopping virus replication by chain termination, there is a concern that these nucleoside analogues are also substrates for the human DNA polymerase γ, resulting in inhibition of mitochondrial DNA replication and subsequently toxic side effects (11, 19). In an attempt to provide direct quantifiable data on mitochondrial DNA levels intracellular, a Q-PCR technology was designed and relative quantification of COXII DNA levels were calculated using the comparative Ct method. […] Also, in agreement with previous observations, no changes in normalized mitochondrial DNA levels were observed after FIAU and D4T treatment (6, 8, 23).
(§1) Low passage number HepG2 cells, obtained from American Tissue Culture Collection (ATCC, Manassas, Va.) were seeded at 5,000 cells/well in collagen-coated 96-well plates. Test compounds were added to the media to obtain a final concentration of 10 μM. On culture day 7, cellular nucleic acids were prepared by using commercially available columns (RNeasy 96 kit, Qiagen). […] The mitochondrial cytochrome C oxidase subunit II (COXII) gene and the β-actin or rRNA gene were amplified from 5 μL with a multiplex Q-PCR protocol using the suitable primers and probes for both target and reference (designed using the Primer Express software, Applied Biosystems); • for COXII. • sense primer 5′-[…]-3′ (Sequence 7); • probe 5′-TET-[…]-TAMRA-3′ (Sequence 8); and • antisense probe 5′-[…]-3′ (Sequence 9); • for exon 3 of β-actin (GenBank E01094): • sense primer 5′-[…]-3′ (Sequence 10); • probe 5′-6FAM-[…]-TAMRA-3′ (Sequnece 11); and • antisense probe 5′-[…]-3′ (Sequence 12).
(§2) The rRNA gene primers and probes were purchased from Applied Biosystems. Standard curves using 1-log diluted total HepG2 DNA were linear over more than 5 logs. In addition, efficiencies of target (COXII DNA) and reference (β-actin DNA or rRNA) amplification were approximately equal, because the slope of the ΔCt line (Ct β-actin minus Ct mitochondrial) was less than 0.1 (not shown). Since equal amplification efficiencies were obtained for both genes, the comparative cycle threshold (Ct) method was used to investigate potential inhibition of the mitochondrial DNA polymerase γ. The comparative Ct method uses arithmetic formulas in which the amount of target (COXII gene) is normalized to an endogenous reference (β-actin gene or rRNA gene) and is relative to a calibrator (no drug control at day 7). The arithmetic formula for this approach is given by 2-ΔΔCt (User bulletin # 2, Applied Biosystems).
(§3) In order to study the consequences of possible inhibitory effects of these compounds on host DNA polymerases, nuclear and rnitochondrial DNA levels were quantified and compared to no-treatment controls. Cells were incubated for 7 days with 10 μM of each compound, followed by total nucleic acid extractions and multiplex Q-PCR of the rRNA gene and the mitochondrial COXII gene. Nucleic acids from cells exposed to the control compounds were also amplified in multiplex for mitDNA and the β-actin gene. The results are presented in Table 4 using the comparative Ct method.

The next series relates to rRNA gene. Format: cell-based, human. The following applies: HepG2, 10 μM, 7 days. The protocol: Low passage number HepG2 cells, obtained from American Tissue Culture Collection (ATCC, Manassas, Va.) were seeded at 5,000 cells/well in collagen-coated 96-well plates. Test compounds were added to the media to obtain a final concentration of 10 μM. On culture day 7, cellular nucleic acids were prepared by using commercially available columns (RNeasy 96 kit, Qiagen).
The rRNA gene primers and probes were purchased from Applied Biosystems. […] The comparative Ct method uses arithmetic formulas in which the amount of target (COXII gene) is normalized to an endogenous reference (β-actin gene or rRNA gene) and is relative to a calibrator (no drug control at day 7). The arithmetic formula for this approach is given by 2-ΔΔCt (User bulletin # 2, Applied Biosystems).
In order to study the consequences of possible inhibitory effects of these compounds on host DNA polymerases, nuclear and rnitochondrial DNA levels were quantified and compared to no-treatment controls. Cells were incubated for 7 days with 10 μM of each compound, followed by total nucleic acid extractions and multiplex Q-PCR of the rRNA gene and the mitochondrial COXII gene. Nucleic acids from cells exposed to the control compounds were also amplified in multiplex for mitDNA and the β-actin gene.

The test system of another series is β-actin gene. Format: cell-based, human. To be noted: 7 days. The protocol: as §1, §2, §3
The subject of the next series is human PBM cells. The series is described as follows: in vitro. Format: cell-based. On the procedure:
The compounds were evaluated for their potential toxic effects on uninfected PHA-stimulated human PBM cells, in CEM (T-lymphoblastoid cell line obtained from American Type Culture Collection, Rockville, Md.) and Vero (African green monkey kidney) cells. PBM cells were obtained from whole blood of healthy seronegative donors (HIV-1 and hepatitis B virus) by single-step Ficoll-Hypaque discontinous gradient centrifugation. […] All of the cells were plated in 96-well cell culture plates containing ten-fold serial dilutions of the test drug. […] At the end of incubation, MTT tetrazolium dye solution (Cell titer 96®, Promega, Madison, Wis.) was added to each well and incubated overnight. The reaction was stopped with stop solubilization solution (Promega, Madison, Wis.). The plates were incubated for 5 hours to ensure that the formazan crystals were dissolved. The plates were read at a wavelength of 570 nm using an ELISA plate reader (Bio-tek instruments, Inc., Winooski, Vt., Model # EL 312e). […] Bookmark not defined.

In series [2] the test system is CEM (T-lymphoblastoid cell line). Format: cell-based. The protocol: (§4) The compounds were evaluated for their potential toxic effects on uninfected PHA-stimulated human PBM cells, in CEM (T-lymphoblastoid cell line obtained from American Type Culture Collection, Rockville, Md.) and Vero (African green monkey kidney) cells. PBM cells were obtained from whole blood of healthy seronegative donors (HIV-1 and hepatitis B virus) by single-step Ficoll-Hypaque discontinous gradient centrifugation. Log phase Vero, CEM and PHA-stimulated human PBM cells were seeded at a density of 5×10^3, 2.5×10^3 and 5×10^4 cells/well respectively. All of the cells were plated in 96-well cell culture plates containing ten-fold serial dilutions of the test drug. The cultures were incubated for 3, 4 and 5 days for Vero, CEM, and PBM cells, respectively in a humidified 5% CO2-air at 37° C. At the end of incubation, MTT tetrazolium dye solution (Cell titer 96®, Promega, Madison, Wis.) was added to each well and incubated overnight. The reaction was stopped with stop solubilization solution (Promega, Madison, Wis.). The plates were incubated for 5 hours to ensure that the formazan crystals were dissolved. The plates were read at a wavelength of 570 nm using an ELISA plate reader (Bio-tek instruments, Inc., Winooski, Vt., Model # EL 312e). […] Bookmark not defined.

The target of series [3] is T1, adenosine deaminase (EC.3.5.4.4. from calf intestinal mucosa) (Bos taurus, UniProt P56658).
T1 sequence (P56658 1-363): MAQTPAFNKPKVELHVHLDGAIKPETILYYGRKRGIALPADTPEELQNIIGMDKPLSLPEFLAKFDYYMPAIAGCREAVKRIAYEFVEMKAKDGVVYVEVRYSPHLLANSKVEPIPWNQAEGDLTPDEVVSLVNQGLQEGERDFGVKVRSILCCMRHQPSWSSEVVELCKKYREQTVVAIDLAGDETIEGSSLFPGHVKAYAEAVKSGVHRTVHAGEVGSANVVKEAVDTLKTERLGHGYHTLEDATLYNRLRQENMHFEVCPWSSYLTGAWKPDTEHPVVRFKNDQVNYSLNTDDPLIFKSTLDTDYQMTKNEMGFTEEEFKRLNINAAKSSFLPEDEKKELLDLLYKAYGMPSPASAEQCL
The series is described as follows: in vitro. On the procedure: Assays were performed at 25° C. in phosphate buffer solution (pH 7.4) with substrate concentrations in the range of 15-100 μM and with 0.15 unit of adenosine deaminase (EC.3.5.4.4. from calf intestinal mucosa). The assays were monitored with a UV spectrometer at 265 nm. Initially, the qualitative assays were performed with D-β-2′-F-4′-S-d4A 24 (200 μM) in the presence of 0.24 unit of adenosine deaminase for 120 minutes to determine whether it is a substrate of this enzyme. The concentration (ct) of each substrate at a certain time (t) was calculated from the absorbance (At) at that time (t), where it was assumed that the total change of absorbance (A0−A∞) was directly related to the disappearance of the substrate.^35 Initial hydrolysis rates for each substrate concentration were measured manually through graphical curve fitting of the concentration versus time data for reaction of each substrate. From Lineweaver-Burke plot of these initial rates, Vmax (maximum velocity) and KM (Michaelis constant) were obtained for each substrate and kcat was also calculated with 0.15 unit of the enzyme (M.W. 33,000) in 2 mL of buffer solution.

A further series concerns HIV-1LAI. Description: HIV assay in human PBM cells (RT activity of supernatant). In kind it is cell-based. To be noted: 5 days, read-out: Anti-HIV-1 Activity (EC50). The source says:
Human peripheral blood mononuclear (PBM) cells (obtained from Atlanta Red Cross) were isolated by Ficoll-Hypaque discontinuous gradient centrifugation from healthy seronegative donors. Cells were stimulated with phytohemagglutinin A (Difco, Sparks, Md.) for 2-3 days prior to use. HIV-1LAI obtained from the Centers for Disease Control and Prevention (Atlanta, Ga.) was used as the standard reference virus for the antiviral assays. The molecular infetious clones HIV-1xxBru and HIV-1M184Vpin were obtained from Dr. John Mellors (University of Pittsburgh). Infections were done in bulk for one hour, either with 100 TCID50/1×10^7 cells for a flask (T25) assay or with 200 TCID50/6×10^5 cells/well for a 24 well plate assay. Cells were added to a plate or flask containing a ten-fold serial dilution of the test compound. Assay medium was RPMI-1640 supplemented with heat inactivated 16% fetal bovine serum, 1.6 mM L-glutamine, 80 IU/ml penicillin, 80 μg/ml streptomycin, 0.0008% DEAE-Dextran, 0.045% sodium bicarbonate, and 26 IU/ml recombinant interleukin-2 (Chiron Corp, Emeryville, Calif.). AZT was used as a positive control for the assay. Untreated and uninfected PBM cells were grown in parallel at equivalent cell concentrations as controls. The cell cultures were maintained in a humidified 5% CO2-air at 37° C. for 5 days and supernatants were collected for reverse transcriptase (RT) activity.
Supernatants were centrifuged at 12,000 rpm for 2 hours to pellet the virus. The pellet was solubilized with vortexing in 100 μl virus solubilization buffer (VSB) containing 0.5% Triton X-100, 0.8 M NaCl, 0.5 mM phenylmethylsulfonyl fluoride, 20% glycerol, and 0.05 M Tris, pH 7.8. Ten μL of each sample were added to 75 μL RT reaction mixture (0.06 M Tris, pH 7.8, 0.012 M MgCl2, 0.006 M dithiothreitol, 0.006 mg/ml poly (rA)n, oligo (dT)12-18, 96 μg/ml dATP, and 1 μM of 0.08 mCi/ml ^3H-thymidine triphosphate (Moravek Biochemicals, Brea, Calif.) and incubated at 37° C. for 2 hours. The reaction was stopped by the addition of 100 μL 10% trichloroacetic acid containing 0.05% sodium pyrophosphate. The acid insoluble product was harvested onto filter paper using a Packard Harvester (Meriden, Conn.), and the RT activity was read on a Packard Direct Beta Counter (Meriden, Conn.). The RT results were expressed in counts per minute (CPM) per milliliter.

The subject of series [4] is Vero (African green monkey kidney) cells. The series is described as follows: in vitro. Format: cell-based. On the procedure: as §4

For the compound `Nc1ccn(C2CSC(CO)O2)c(=O)n1` (single isomer, unassigned; (+)) [(+)-BCH-189, (+)-β-2′,3′-dideoxy-3′-thiacytidine], the “COXIINrDNA (range) relative to control” value in series [1] (COXII DNA normalized to rDNA, 2-ΔΔCt) was 0.20 (0.13-0.32). In addition, in series [1] (2-ΔΔCt), the “COXIINβ-actin DNA (range) relative to control” value is 0.17 (0.14-0.22). Further, in series [1], the “Average ΔΔCt ± SD COXII-rDNA” value was 2.3 ± 0.66^d; the “Average ΔΔCt ± SD COXII-β-actin” value is on record as 2.53 ± 0.36^d; the “effect on (normalized) mitochondrial COXII DNA levels, in words” value is listed as “reduce rnitochondrial COXII DNA levels”. For the same compound, in the series on rRNA gene, the “Average ΔCt ± SD rDNA” value is recorded as −0.14 ± 0.61 and the “Average ΔΔCt ± SD rDNA-β-actin” value amounted to 0.23 ± 0.39. Also, the “Average ΔCt ± SD β-actin DNA” value in the series with β-actin gene (HepG2, 10 μM) is given as −0.36 ± 0.31.

As for `Nc1nc2c(ncn2COCCO)c(=O)[nH]1` [ACV, 9-(2-hydroxyethoxymethyl)guanine], in [1] (2-ΔΔCt), the “COXIINβ-actin DNA (range) relative to control” value is 1.45 (1.34-1.52). Further, in [1], the “Average ΔCt ± SD COXII DNA” value is −0.37 ± 0.08 and the “Average ΔΔCt ± SD COXII-β-actin” value is recorded as −0.54 ± 0.06. Besides, the “Average ΔCt ± SD β-actin DNA” value with β-actin gene (human, 10 μM) stood at 0.17 ± 0.01.

Regarding `Cc1cn([C@@H]2CC(F)(F)[C@H](CO)O2)c(=O)[nH]c1=O` [Compound 26, 1-(2,3-Dideoxy-3,3-difluoro-β-L-ribofuranosyl)thymine], the melting point was 140 °C (dec.).

For the compound `Cc1cn([C@@H]2C=C(F)[C@H](CO)O2)c(=O)[nH]c1=O` [Compound 28, 1-(2,3-dideoxy-3-fluoro-β-L-glycero-pent-2-eno-furanosyl)thymine], the melting point is 146 to 148 °C (dec.).

`Nc1ncnc2c1ncn2[C@@H]1S[C@H](CO)C=C1F` [Compound D-27, (−)-9-[(1R,4S)-2,3-dideoxy-2,3-didehydro-2-fluoro-4-thio-β-D-ribofuranosyl]-adenine]: the half-maximal inhibitory concentration (IC50) (in the series with human PBM cells; in [2]; in series [4]) was over 100 µM each time. Moreover, the turnover number (kcat) in [3] (25° C., pH 7.4, 0.15 unit of enzyme) came to 0.94 s⁻¹. In addition, the Michaelis constant (Km) in series [3] (25° C., phosphate buffer pH 7.4, substrate of ADA) stood at 18.3 µM. Moreover, in series [3] (bovine), the t½ came to 33 min. For the same compound, in the series on HIV-1LAI, the 50% effective concentration (EC50) is 8.1 µM.
